Results taken from patent publication US12043612B2, “Methods of manufacturing a bifunctional compound, ultrapure forms of the bifunctional compound, and dosage forms comprising the same” (Arvinas Operations, Inc., priority 2020, dated 2024).

Experiments:
[1] = Rat pharmacokinetic studies with solutions and spray-dried dispersions; settings: rats; solutions containing solubilizers and precipitation inhibitors
[2] = Membrane flux experiment (donor/receiver compartments, SIF bile salts)
Description: A membrane flux experiment was conducted in which a fixed amount of compound was introduced into the donor compartment at various concentrations of the SIF bile salts, and appearance of drug was monitored on the receiver side.

## N#Cc1ccc(O[C@H]2CC[C@H](NC(=O)c3ccc(N4CCC(CN5CCN(c6cc7c(cc6F)C(=O)N(C6CCC(=O)NC6=O)C7=O)CC5)CC4)nn3)CC2)cc1Cl (some centres unmarked) [Compound A, N-[(1r,4r)-4-(3-chloro-4-cyanophenoxy)cyclohexyl]-6-[4-({4-[2-(2,6-dioxopiperidin-3-yl)-6-fluoro-1,3-dioxo-2,3-dihydro-1H-isoindol-5-yl]piperazin-1-yl}methyl)piperidin-1-yl]pyridazine-3-carboxamide]
[1]
  exposure versus dose: Dose-linear exposure escalation
[2]; SIF 0 mg/mL
  Flux (μg-min^−1-cm^−2): 0.02 μg-min^−1-cm^−2
[2]; SIF 5 mg/mL
  Flux (μg-min^−1-cm^−2): 0.09 μg-min^−1-cm^−2
[2]; SIF 10 mg/mL
  Flux (μg-min^−1-cm^−2): 0.14 μg-min^−1-cm^−2
[2]; SIF 20 mg/mL
  Flux (μg-min^−1-cm^−2): 0.20 μg-min^−1-cm^−2
